Assay results from patent US10450610B2, “Single nucleotide polymorphisms (SNP) and association with resistance to immune tolerance induction” (University of Tennessee Research Foundation, priority 2008, dated 2019).
“And” between values parts separate entries of the source, which are not always exact repeats. Identical values can stand only once.

Key:
[1] = tested on: BALB/c mice and DBA/1 lac J mice; assay: Effect of commonly used immunomodulatory drugs on oral tolerance induction (oral OVA or oral bovine CII); assay type: in vivo; conditions: for effect on tolerance induction: oral OVA in BALB/c mice and oral bovine CII in DBA/1 lac J mice; for OT induction to CII: DBA/1 lac J mice, prednisone at 10 mg/day equivalent
Protocol: Further, studies were conducted using oral OVA (1 mg/day×5 days) in BALB/c mice and oral bovine CII (10 μg×8 doses over 14 days) in DBA/1 lac J mice to test the effects of commonly used immunomodulatory drugs on immune induction ([…], hydroxychloroquine 400 mg/day, methotrexate 17.5 mg/week, leflunomide 20 mg/day after 100 mg/day×3 loading doses, sulfasalazine 2.5 gm/day, D-penicillamine 750 mg/day, IM gold, and etanercept 25 mg twice weekly).

[2] = tested on: spleen cells; assay: COX-2 inhibitor SC′236 and oral tolerance induction; spleen cell IFNγ with α1(II) CB mixture (ELISA); assay type: in vivo, mice; conditions: for oral tolerance induction to CII: DBA/1 mice, assessed by IFNγ production by spleen cells
Protocol: Groups of 8 mice each were gavaged on MTTHF×2 weeks in the a.m. with PBS or SC′236 (5 μg/gm in 100 μl PBS). SC′236 (Searle) is ˜2000× more inhibitory for COX-2 than for COX-1.
Four of the mice given PBS in the a.m. and 4 mice given SC′236 in the a.m. were gavaged in the p.m. with 10 μg bovine type II collagen (CII). The other 4 mice in the a.m. PBS and a.m. SC′236 group were gavaged in the p.m. with 0.1M acetic acid (HAc) the vehicle the CII was dissolved in. After these 8 day feedings, all mice were rested for 1 week and then immunized with 100 μg of CII in complete Freund's adjuvant. After 10 days, all mice were sacrificed, and spleen cells (2×10^6/ml) were isolated and set up in culture with PBS and bovine α1(II) (50 μg/ml) CB mixture. After 4 days culture, the supernatants were harvested and IFNγ levels determined by ELISA (Endogen). Since the PBS+spleen cell culture from all mice produced between 1-12 pg/ml IFNγ, only the α1(II) data are plotted. All groups were compared to Placebo control group by Student's 2 sample t test.

[3] = tested on: DBA/1 mice; assay: NSAID inhibition of oral tolerance induction to collagen II; arthritic joints scored; assay type: in vivo
Protocol: To determine whether tolerance induction to orally fed bovine CII in DBA/1 mice would be abrogated by orally fed NSAID, 3 groups of 20-22 DBA/1 mice were fed (by gavage) eight doses (Monday, Tuesday, Thursday, and Friday for 2 weeks) of the following: Placebo (saline) in the a.m. and Placebo (0.1 M HAc) in the p.m.; Placebo (saline) in the a.m. and 10 μg native bovine CII in the p.m.; or piroxicam (2.4 μg/gm) in the a.m. and native bovine CII (10 μg) in the p.m. After 1 week, all mice were immunized (intradermally at the base of tail) with 100 μg of bovine CII emulsified in complete Freund's adjuvant. Animals were placed in coded cages and were scored by a blinded observer twice weekly for the number of arthritic joints (joints swollen, red, and/or deformed).

[4] = tested on: DBA/1 Lac mice; assay: Low dose oral collagen II tolerance induction; arthritis after CII/CFA immunization; assay type: in vivo; conditions: 8 times over 2 weeks, FIG. 6
Protocol: Groups of 12 mice were fed oral CII at the doses indicated 8 times over 2 weeks […]. After 4 days rest, the mice were then immunized at the base of the tail with 100 μg CII emulsified with complete Freund's adjuvant. The degree of arthritis was assessed by a blinded observer for 8 weeks.
The percent of mice with grade 3 or 4 arthritis is indicated on the Y-axis. The biphasis response is due to induction of different tolerance mechanisms by low dose vs high dose CII. Low dose CII (10μg) induces regulatory T cells while high dose (500 μg) induces anergy or clonal deletion.

[5] = tested on: PBMC; assay: Oral collagen II in RA patients; IFNγ production (stimulation index) by PBMC cultured with α1(II); assay type: in vivo, human; conditions: for non-responders to oral CII: FIG. 13
Protocol: Immunological tolerance, defined as a ≥30% reduction in IFN-γ production by PBMC cultured with α1(II) of type II collagen, was examined in patients. Patients that were taking disease-modifying antirheumatic drugs, anti-TNF agents and/or non steroidal inflammatories were administered misoprostol 100 μg bid to reverse the non steroidal antiinflammatory inhibition of oral tolerance. Patients were randomized to receive “low” or “high” doses of CII. The Low Dose group (n=38) took daily 30 μg/day bovine CII for 10 weeks, then 50 μg/day for 10 weeks and then 70 μg/day for 10 weeks. The High Dose group (n=41) took 90 μg/day for 10 weeks, 110 μg/day for 10 weeks and then 130 μg/day for 10 weeks.
Heparinized blood was obtained at baseline and after each of the 10 week treatment periods. The blood was diluted 1:3 with RPMI 1640 containing penicillin (100 u/ml) and streptomycin (100 μg/ml) within 1-4 hours after collection, wrapped in paper, and placed in a styrofoam box containing a “cold pack” and shipped overnight. The PBMC were isolated from the blood samples and set up in culture with bovine α1(II) 25 μg/ml, PHA 10 μg/ml or with 50 ul PBS. After 6 days in culture, cell free supernatants were collected and stored at −70° for up to 7 months at which time all samples from a given patient were assayed for IFNγ by commercial ELISA (R & D Systems). The results are shown as in FIG. 13.
The IFNγ stimulation index (SI) was calculated as
[formula] The SI for patients receiving each of the low doses (30 μg, 50 μg and 70 μg/day) was compared with their SI at baseline before each of the 10 week treatments and similarly with the high dose CII group (90 μg, 110 μg and 130 μg/day) with their SI at baseline before each of the 10 week treatments.
SNP analysis was performed of 16 responders and 8 non-responders to oral CII to find the frequency of SNPs closely associated on chromosomes next to several cytokines and chemokines known to be important for oral tolerance induction. The 16 patients were those with had ≥50% reduction in IFNγ α1 stimulation index from baseline to either the 30 μg/day, 50 μg/day, 110 μg/day or 130 μg/day dose of CII (“OT Responders”). The 8 patients with increases in IFNγ α1 S.I. at the 30 μg/day, 50 μg/day, 110 μg/day or 130 μg/day doses of oral CII were selected (“OT Non-Responders”).

[6] = tested on: mesenteric lymph node cells; assay: Mesenteric lymph node cell proliferation with α1(II) CB peptide mixture; assay type: in vivo, mice; conditions: mice fed either CII or piroxicam alone; FIG. 12
[7] = tested on: spleen cells; assay: IFNγ production by spleen cells of fed, CII-immunized mice cultured with α1(II) CB peptide mixture (ELISA); assay type: in vivo; conditions: fed with Placebo (alone); FIG. 8
From the text: To assess the effect of oral feeding of piroxicam to another group of mice fed Placebo or CII on spleen cell IFNγ production in a manner similar to the experiment in FIG. 7, four groups of mice (4 mice per group) were gavaged 8 days over 2 weeks with the following: Piroxicam a.m.—CII p.m.; Piroxicam a.m.—HAc p.m.; Saline a.m.—CII p.m.; or Saline a.m.—HAc p.m. After 1 week rest, all mice were immunized at the base of the tail with a CII—complete Freund's adjuvant emulsion. After 14 days, mice ere sacrificed, and spleen cells were isolated and set up in culture with PBS or α1(II)CB peptide mixture. After 72 h culture, harvested supernatants ere analyzed for IFNγ levels by ELISA.

[8] = individual RA patients, No SNP A-1515737 AA genotype
[9] = individual RA patients, SNP A-1515737 AA genotype

CC(C)(S)[C@@H](N)C(=O)O [D-penicillamine]
effect on tolerance induction [1]: did not completely suppress tolerance

NS(=O)(=O)c1ccc(-n2nc(C(F)(F)F)cc2-c2ccc(Cl)cc2)cc1 [SC′236]
oral tolerance induction to CII ([2]; listed as SC236): blocked oral tolerance induction | oral tolerance induction to CII ([2]; listed as SC'236): abrogates oral tolerance induction | IFNγ production by spleen cells stimulated by α1(II) CB digest ([2]; SC′236 5 μg/gm fed alone, FIG. 9): lower IFNγ production | IFNγ production by spleen cells cultured with α1(II) CB digest ([2]; SC′236 + CII fed, p<0.01, FIG. 9): significant increase

CC(=O)OC[C@H]1O[C@@H]([S-])[C@H](OC(C)=O)[C@@H](OC(C)=O)[C@@H]1OC(C)=O.CCP(CC)CC.[Au+] [auranofin]
OT induction to CII [1]: did block OT induction to CII

CCN(CCO)CCCC(C)Nc1ccnc2cc(Cl)ccc12 (centres unmarked) [hydroxychloroquine]
effect on tolerance induction [1]: did not completely suppress tolerance

Cc1oncc1C(=O)Nc1ccc(C(F)(F)F)cc1 [leflunomide]
effect on tolerance induction [1]: did not completely suppress tolerance

CN(Cc1cnc2nc(N)nc(N)c2n1)c1ccc(C(=O)N[C@@H](CCC(=O)O)C(=O)O)cc1 [methotrexate]
effect on tolerance induction [1]: did not completely suppress tolerance

COc1ccc2cc(CCC(C)=O)ccc2c1 [nabumatone]
oral tolerance (OT) induction ([3]; DBA/1 mice fed CII, FIG. 7 / similar studies (data not shown)): abrogated OT induction

C[C@]12C=CC(=O)C=C1CC[C@@H]1[C@@H]2C(=O)C[C@@]2(C)[C@H]1CC[C@]2(O)C(=O)CO [prednisone]
OT induction to CII [1]: did block OT induction to CII | effect on tolerance induction [1]: did not completely suppress tolerance

O=C(O)c1cc(/N=N/c2ccc(S(=O)(=O)Nc3ccccn3)cc2)ccc1O [sulfasalazine]
effect on tolerance induction [1]: did not completely suppress tolerance

bovine type II collagen [CII]
percent of arthritic joints ([3]; Placebo+CII (10 μg, eight doses) vs Placebo+Placebo fed controls, p<0.03, FIG. 7): less | incidence of arthritis (percent of mice with grade 3 or 4 arthritis) ([4]; 10 μg/day oral CII): most effective in reducing the incidence of arthritis | incidence of arthritis (percent of mice with grade 3 or 4 arthritis) ([4]; 500 μg/day oral CII): also, but less, effective | suppression of IFNγ production (dose response) ([5]; 30 μg, 50 μg and 110 μg/day of oral CII): maximal suppression | IFNγ SI ([5]; 70 μg and 90 μg/day doses): did not reduce | IFNγ SI compared to baseline values ([5]; 70 μg/day dose): significantly increased | patients with a 50% reduction in α1(II) stimulated IFNγ production ([5]; 30, 50 and 110 μg/day oral CII): 69% | non-responders to oral CII ([5]; 30-50 μg/day dose): 30% | non-responders to oral CII ([5]; 110-130 μg/day dose): 28% | number of CII OT Non-Responder patients ([5]; AA genotype): 7 | number of CII OT Responder patients ([5]; AA genotype): 1 | number of CII OT Non-Responder patients ([5]; Non-AA genotype): 2 | number of CII OT Responder patients ([5]; Non-AA genotype): 15 | Ratio: After/baseline (IFNγ α1(II) SI) ([5]; group mean, No SNP A-1515737 AA genotype): 0.427 ± 0.217 | α1(II) SI After Oral CII ([5]; group mean, No SNP A-1515737 AA genotype (17 patients)): 175 ± 46 | Ratio: After/baseline (IFNγ α1(II) SI) ([5]; group mean, SNP A-1515737 AA genotype): 3.512 ± 1.347 | α1(II) SI After Oral CII ([5]; group mean, SNP A-1515737 AA genotype (7 patients)): 613 ± 256 | OT Responder [5, 8]: Yes (15×) and No (2×) | Ratio: After/baseline (IFNγ α1(II) SI) [5, 8]: 0.4932 and 1.9178 and 2.9064 and 0.0573 and 0.1034 and 0.4119 and 0.0789 and 0.0694 and 0.0631 and 0 and 0.0018 and 0.0176 and 0.3520 and 0.0423 and 0.2454 and 0.0030 and 0.1008 | α1(II) SI After Oral CII ([5]; individual RA patients, No SNP A-1515737 AA genotype, 30, 50 or 110 μg/day for 10 weeks): 360 and 280 and 590 and 152 and 6 and 276 and 18 (2×) and 503 and 19 and 0 and 3 and 7 and 358 and 93 and 540 and 246 | OT Responder [5, 9]: No (6×) and Yes | Ratio: After/baseline (IFNγ α1(II) SI) [5, 9]: 2.3774 and 5.0500 and 2.9778 and 10.8021 and 0.0040 and 1.3688 and 2.0050 | α1(II) SI After Oral CII ([5]; individual RA patients, SNP A-1515737 AA genotype, 30, 50 or 110 μg/day for 10 weeks): 630 and 404 and 268 and 2020 and 3 and 167 and 800 | oral tolerance to CII (reduced immune response to fed antigen) ([5]; patients taking DMARDs, anti-TNF agents and NSAIDS, low dose misoprostol given): can be induced | IFNγ α1(II) S.I. after oral CII treatment ([5]; patients who carried SNP A-1515737 AA, p=0.230): no significant change | IFNγ α1(II) S.I. after oral CII compared to baseline values ([5]; patients without SNP A-1515737 AA (ROT1 AA) genotype, p<0.001): significant reduction | IFNγ SI ([5]; ten weeks treatment with 30, 50, 110 and 130 μg/day oral CII, vs baseline): marked suppression | proliferation in response to α1(II) CB peptide mixture [6]: did not proliferate | IFNγ production by spleen cells stimulated by α1(II) CB digest ([2]; CII 10 μg fed, vs Placebo control, p<0.025, FIG. 9): significant reduction | IFNγ production by spleen cells cultured with α1(II) CB peptide mixture [7]: reduced production of IFNγ

etanercept
effect on tolerance induction [1]: did not completely suppress tolerance
